Literature values as cited in PubChem BioAssay AID1259409 (Chemical Carcinogenesis Research Information System (CCRIS), 2018).
“And” between values parts separate entries of the source, which are not always exact repeats. Equal entries are not always repeated.

Tested on: rodent chemically induced tumor inhibition, incidence and multiplicity
Assay: CCRIS tumor inhibitor studies

Compound: [O]=[V](=[O])[OH]
- tumour outcome (control, treated, inhibition, significance) (Carcinogen: 7,12-DIMETHYLBENZ[A]ANTHRACENE (57-97-6), Dose [Inhibitor]: DRINKING WATER, Route [Inhibitor]: 4.27 µM/L DIRECTLY AFTER CARCINOGEN UNTIL 34 WKS, Species: RAT, Strain/Sex: SPRAGUE-DAWLEY/FEMALE, Target Tissue: Type of Lesion: MAMMARY: CARCINOMA, Dose [Carcinogen]: 0.5 MG/100 G BW AT 50 D OF AGE ONCE (STUDY DURATION: 35 WKS)): 100%, 60%, 40%, p<0.05
- outcome (Carcinogen: 7,12-Dimethylbenzanthracene, 57-97-6, Dose [Inhibitor]: 0.5 ppm in drinking water beginning immediately after carcinogen up to 35 wks study duration, Route [Inhibitor]: Oral, Species: Rat, Strain/Sex: Sprague-Dawley/Female, Target Tissue: Type of Lesion: Mammary gland: Adenocarcinoma, Dose [Carcinogen]: 0.5 mg/100 g bw iv once, study duration 35 wk, Promoter: None): 9/10 (90%), 6/10 (60%), p<0.05
- outcome (Carcinogen: INTRAVENOUS; Dose [Inhibitor]: 7,12-DIMETHYLBENZ[A]ANTHRACENE; 57-97-6; Route [Inhibitor]: 0; 0.5 PPM IN DRINKING WATER FOR 35 WK BEGINNING IMMEDIATELY POST CARCINOGEN TREATMENT, STUDY DURATION: 35 WK), Species: RAT, Strain/Sex: SPRAGUE-DAWLEY/FEMALE, Target Tissue: Type of Lesion: 9/10 (90%), 6/10 (60%), 33%, P<0.05): 8.11, 5.33, 34%, p<0.01
- tumour outcome (control, treated, inhibition, significance) (Carcinogen: N,N-Diethylnitrosamine;(55-18-5, Dose [Inhibitor]: 0.5 ppm as vanadium starting 4 wk prior to DEN and stopped at week 4, Route [Inhibitor]: Oral (drinking water), Species: Rats, Strain/Sex: Sprague-Dawley/Male, Target Tissue: Type of Lesion: Liver: Preneoplastic nodules, Dose [Carcinogen]: Single 200 mg/kg dose in 0.9% saline at wk 4 of experiment, Promoter: Phenobarbital): 15/15 (100%), 4/12 (33.33%), 66.67%

Compound: O[C@@H](CS)[C@@H](O)CS
- tumour outcome (control, treated, inhibition, significance) (Carcinogen: TRANS-5-AMINO-3-[2-(5-NITRO-2-FURYL)VINYL]-1,2,4-OXADIAZOLE;SQL8506, 28754-68-9, Carcinogen: TRANS-5-AMINO-3-[2-(5-NITRO-2-FURYL)VINYL]-1,2,4-OXADIAZOLE;SQL8506, 28754-68-9, Dose [Inhibitor]: 100 MG/KG 16 HR BEFORE THE 1ST CARCINOGEN DOSE FOLLOWED BY ADDITIONAL INJECTIONS IMMEDIATELY BEFORE EACH DOSE OF CARCINO, Route [Inhibitor]: INTRAPERITONEAL, Species: MOUSE, Strain/Sex: CD-1/FEMALE, Target Tissue: Type of Lesion: HEMATOPOIETIC SYSTEM: MYELOID LEUKEMIA, Dose [Carcinogen]: 1 G/KG 2/D FOR 5 D EVERY 4 WK FOR 3 COURSES OF TREATMENT, Promoter: NONE USED): 7/137 (5%), 0/30 (0%), 100%, not calculated
- tumour outcome (control, treated, inhibition, significance) (Carcinogen: TRANS-5-AMINO-3-[2-(5-NITRO-2-FURYL)VINYL]-1,2,4-OXADIAZOLE;SQL8506, 28754-68-9, Carcinogen: TRANS-5-AMINO-3-[2-(5-NITRO-2-FURYL)VINYL]-1,2,4-OXADIAZOLE;SQL8506, 28754-68-9, Dose [Inhibitor]: 100 MG/KG 16 HR BEFORE THE 1ST CARCINOGEN DOSE FOLLOWED BY ADDITIONAL INJECTIONS IMMEDIATELY BEFORE EACH DOSE OF CARCINO, Route [Inhibitor]: INTRAPERITONEAL, Species: MOUSE, Strain/Sex: CD-1/FEMALE, Target Tissue: Type of Lesion: LYMPHOID TISSUE: NONTHYMIC LYMPHOMA, Dose [Carcinogen]: 1 G/KG 2/D FOR 5 D EVERY 4 WK FOR 3 COURSES OF TREATMENT, Promoter: NONE USED): 8/137 (6%), 2/30 (7%), -17%, not calculated
- tumour outcome (control, treated, inhibition, significance) (Carcinogen: TRANS-5-AMINO-3-[2-(5-NITRO-2-FURYL)VINYL]-1,2,4-OXADIAZOLE;SQL8506, 28754-68-9, Carcinogen: TRANS-5-AMINO-3-[2-(5-NITRO-2-FURYL)VINYL]-1,2,4-OXADIAZOLE;SQL8506, 28754-68-9, Dose [Inhibitor]: 100 MG/KG 16 HR BEFORE THE 1ST CARCINOGEN DOSE FOLLOWED BY ADDITIONAL INJECTIONS IMMEDIATELY BEFORE EACH DOSE OF CARCINO, Route [Inhibitor]: INTRAPERITONEAL, Species: MOUSE, Strain/Sex: CD-1/FEMALE, Target Tissue: Type of Lesion: LYMPHOID TISSUE: THYMIC LYMPHOMA, Dose [Carcinogen]: 1 G/KG 2/D FOR 5 D EVERY 4 WK FOR 3 COURSES OF TREATMENT, Promoter: NONE USED): 22/137 (16%), 4/30 (13%), 19%, not calculated
- tumour outcome (control, treated, inhibition, significance) (Carcinogen: TRANS-5-AMINO-3-[2-(5-NITRO-2-FURYL)VINYL]-1,2,4-OXADIAZOLE;SQL8506, 28754-68-9, Carcinogen: TRANS-5-AMINO-3-[2-(5-NITRO-2-FURYL)VINYL]-1,2,4-OXADIAZOLE;SQL8506, 28754-68-9, Dose [Inhibitor]: 100 MG/KG 16 HR BEFORE THE 1ST CARCINOGEN DOSE FOLLOWED BY ADDITIONAL INJECTIONS IMMEDIATELY BEFORE EACH DOSE OF CARCINO, Route [Inhibitor]: INTRAPERITONEAL, Species: MOUSE, Strain/Sex: CD-1/FEMALE, Target Tissue: Type of Lesion: STOMACH: SQUAMOUS CARCINOMA, Dose [Carcinogen]: 1 G/KG 2/D FOR 5 D EVERY 4 WK FOR 3 COURSES OF TREATMENT, Promoter: NONE USED): 60/137 (44%), 18/30 (60%), -36%, not calculated

Compound: CC(C)(C)c1cc(C(C)(C)C)c(O)cc1O
- tumour outcome (control, treated, inhibition, significance) (Carcinogen: BENZO[A]PYRENE, 50-32-8, Dose [Inhibitor]: 0.03 MMOL/G OF DIET DAILY STARTING 7 D BEFORE AND CONTINUING THROUGH 3 D AFTER CARCINOGEN TREATMENT FOLLOWED BY OBSERVAT, Route [Inhibitor]: ORAL, Species: MOUSE, Strain/Sex: ICR/FEMALE, Target Tissue: Type of Lesion: FORESTOMACH: NEOPLASM, Dose [Carcinogen]: 1 MG IN 0.2 ML CORN OIL 2/WK FOR 4 WK, Promoter: NONE USED): 94%, 100%, -6%, not significant

Compound: CC1=CCC(=O)O1
- tumour outcome (control, treated, inhibition, significance) (Carcinogen: BENZO[A]PYRENE, 50-32-8, Dose [Inhibitor]: 0.034 MMOL/G IN DIET FOR 5 WK (STUDY DURATION: 21 WK), Route [Inhibitor]: ORAL, Species: MOUSE, Strain/Sex: ICR/HA/FEMALE, Target Tissue: Type of Lesion: FORESTOMACH: TUMOR, Dose [Carcinogen]: 1 MG IN 0.2 ML CORN OIL, 2/WK FOR 4 WK STARTING ON D 8 OF EXPERIMENT, Promoter: NONE USED): 95%, 42%, 56%, p<0.01 and 95%, 53%, 44%, p<0.01
